Measured values taken from patent US20050009840A1 (SUGEN, INC., priority 2003, published 2005).

target: T1, Met kinase domain (GST fusion protein) (Homo sapiens, UniProt P08581); assay: Met transphosphorylation assay (ELISA, poly(glu-tyr) substrate); format: biochemical; conditions: at 20 μM; read-out: Met inhibition (printed in the Met IC50 column);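 also: Cell-free ELISA with plate-bound poly(Glu:Tyr 4:1) phosphorylated by GST-fused Met kinase domain plus ATP and Mn2+, phosphotyrosine detected by anti-phosphotyrosine antibody with HRP and ABTS read-out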
T1 construct: Purified GST fusion protein containing the Met kinase domain
T1 sequence (P08581 1078-1345 limits assumed): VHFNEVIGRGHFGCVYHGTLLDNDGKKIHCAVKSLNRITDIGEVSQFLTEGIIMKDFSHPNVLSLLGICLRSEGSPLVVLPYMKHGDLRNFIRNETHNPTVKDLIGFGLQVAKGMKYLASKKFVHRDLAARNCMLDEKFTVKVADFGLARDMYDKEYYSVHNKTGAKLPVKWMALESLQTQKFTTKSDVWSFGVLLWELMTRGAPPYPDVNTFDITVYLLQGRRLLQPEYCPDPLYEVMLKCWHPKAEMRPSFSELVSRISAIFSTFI

Nc1ncc(Br)cc1OCc1c(F)cccc1F [I(c)] showed an inhibition at 20 µM of 40%.

same assay, conditions: plain numbers in column Met IC50 (μM) of Table 2; read-out: Met IC50

Compared with Nc1ncc(-c2ccccn2)cc1OCc1c(F)ccc(F)c1Cl [Example I-500, 5′-(2-Chloro-3,6-difluoro-benzyloxy)-[2,3′]bipyridinyl-6′-ylamine], CC(Oc1cc(-c2ccccn2)cnc1N)c1c(F)ccc(F)c1Cl (stereo not shown) [Example I-524, 5′-[1-(2-Chloro-3,6-difluoro-phenyl)-ethoxy]-[2,3′]bipyridinyl-6′-ylamine] is 2.9-fold lower in IC50: 1.8 µM for the first, 0.612 µM for the second. The second is the more potent here.

Nc1ncc(-c2ccncc2)cc1OCc1c(F)ccc(F)c1Cl [Example I-502, 5-(2-Chloro-3,6-difluoro-benzyloxy)-[3,4′]bipyridinyl-6-ylamine] and Nc1ccc(-c2cnc(N)c(OCc3c(F)ccc(F)c3Cl)c2)cn1 [Example I-504, 5-(2-Chloro-3,6-difluoro-benzyloxy)-[3,3′]bipyridinyl-6,6′-diamine] are within 1.5-fold of each other in IC50: 0.211 µM for the first, 0.209 µM for the second.

First: Nc1ncc(-c2cncnc2)cc1OCc1c(F)ccc(F)c1Cl [Example I-503, 3-(2-Chloro-3,6-dlfluoro-benzyloxy)-5-pyrimidin-5-yl-pyridin-2-ylamine]
Second: CC(Oc1cc(-c2cncnc2)cnc1N)c1c(F)ccc(F)c1Cl (stereo not shown) [Example I-526, 3-[1-(2-Chloro-3,6-difluoro-phenyl)-ethoxy]-5-pyrimidin-5-yl-pyridin-2-ylamine]
The IC50 of the first is 3.9-fold higher: 2.15 µM for the first, 0.552 µM for the second.

Nc1ncc(-c2ccccn2)cc1OCc1c(Cl)cccc1Cl [Example I-505, 5-′(2,6-Dichloro-benzyloxy)-[2,3′]bipyridinyl-6′-ylamine] and Nc1ncc(-c2cccnc2)cc1OCc1c(Cl)cccc1Cl [Example I-506, 5-(2,6-Dichloro-benzyloxy)-[3,3′]bipyridinyl-6-ylamine] are within 1.5-fold of each other in IC50: 2.84 µM for the first, 2.71 µM for the second.

First: Nc1ncc(-c2ccncc2)cc1OCc1c(Cl)cccc1Cl [Example I-507, 5-(2,6-Dichloro-benzyloxy)-[3,4′]bipyridinyl-6-ylamine]
Second: Nc1ccc(-c2cnc(N)c(OCc3c(Cl)cccc3Cl)c2)cn1 [Example I-509, 5-(2,6-Dichloro-benzyloxy)-[3,3′]bipyridinyl-6,6′-diamine]
The IC50 of the first is 2.2-fold higher: 1.3 µM for the first, 0.578 µM for the second.

Going from Nc1ncc(-c2cncnc2)cc1OCc1c(Cl)cccc1Cl [Example I-508, 3-(2,6-Dichloro-benzyloxy)-pyrimidin-5-yl-pyridin-2-ylamine] to CC(Oc1cc(-c2cccnc2)cnc1N)c1c(F)ccc(F)c1Cl (stereo not shown) [Example I-525, 5-[1-(2-Chloro-3,6-difluoro-phenyl)-ethoxy]-[3,3′]bipyridinyl-6-ylamine], the IC50 falls from 10.3 µM to 0.0777 µM (130-fold).

Compared with CC(Oc1cc(-c2ccc(N)nc2)cnc1N)c1c(Cl)ccc(F)c1Cl (stereo not shown) [Example I-510, 5-[1-(2,6-Dichloro-3-fluoro-phenyl)-ethoxy]-[3,3′]bipyridinyl-6,6′-diamine], CC(Oc1cc(-c2ccc(N)nc2)cnc1N)c1c(F)ccc(F)c1Cl (stereo not shown) [Example I-516, 5-[1-(2-Chloro-3,6-difluoro-phenyl)-ethoxy]-[3,3′]bipyridinyl-6,6′-diamine] is 2.4-fold higher in IC50: 0.0167 µM for the first, 0.0393 µM for the second.

Compared with CC(Oc1cc(-c2cc(C(=O)N3CCN(C)CC3)ccn2)cnc1N)c1c(Cl)ccc(F)c1Cl (stereo not shown) [Example I-511, {6′-Amino-5′-[1-(2,6-dichloro-3-fluoro-phenyl)-ethoxy]-[2,3′]bipyridinyl-4-yl}-(4-methyl-piperazin-1-yl)-methanone], CC(Oc1cc(-c2cc(C(=O)N3CCN(C)CC3)ccn2)cnc1N)c1c(F)ccc(F)c1Cl (stereo not shown) [Example I-518, {6′-Amino-5′-[1-(2-chloro-3,6-difluoro-phenyl)-ethoxy]-[2,3′]bipyridinyl-4-yl}-(4-methyl-piperazin-1-yl)-methanone] is 2.8-fold higher in IC50: 0.0742 µM for the first, 0.209 µM for the second.

Going from CC(Oc1cc(-c2cccc(C(=O)N3CCN(C)CC3)n2)cnc1N)c1c(Cl)ccc(F)c1Cl (stereo not shown) [Example I-512, {6′-Amino-5′-[1-(2,6-dichloro-3-fluoro-phenyl)-ethoxy]-[2,3′]bipyridinyl-6-yl}-(4-methyl-piperazin-1-yl)-methanone] to CC(Oc1cc(-c2cccc(C(=O)N3CCN(C)CC3)n2)cnc1N)c1c(F)ccc(F)c1Cl (stereo not shown) [Example I-519, {6′-Amino-5′-[1-(2-chloro-3,6-difluoro-phenyl)-ethoxy]-[2,3′]bipyridinyl-6-yl}-(4-methyl-piperazin-1-yl)-methanone], the IC50 rises from 0.0629 µM to 0.466 µM (7.4-fold).

Going from CC(Oc1cc(-c2cncc(C(=O)N3CCN(C)CC3)c2)cnc1N)c1c(Cl)ccc(F)c1Cl (stereo not shown) [Example I-513, {6′-Amino-5′-[1-(2,6-dichloro-3-fluoro-phenyl)-ethoxy]-[3,3′]bipyridinyl-5-yl}-(4-methyl-piperazin-1-yl)-methanone] to CC(Oc1cc(-c2cncc(C(=O)N3CCN(C)CC3)c2)cnc1N)c1c(F)ccc(F)c1Cl (stereo not shown) [Example I-520, {6′-Amino-5′-[1-(2-chloro-3,6-difluoro-phenyl)-ethoxy]-[3,3′]bipyridinyl-5-yl}-(4-methyl-piperazin-1-yl)-methanone], the IC50 rises from 0.034 µM to 0.134 µM (3.9-fold).

Compared with CC(Oc1cc(-c2ccc(C(=O)N3CCN(C)CC3)nc2)cnc1N)c1c(Cl)ccc(F)c1Cl (stereo not shown) [Example I-514, {6′-Amino-5′-[1-(2,6-dichloro-3-fluoro-phenyl)-ethoxy]-[3,3′]bipyridinyl-6-yl}-(4-methyl-piperazin-1-yl)-methanone], CC(Oc1cc(-c2ccc(C(=O)N3CCN(C)CC3)nc2)cnc1N)c1c(F)ccc(F)c1Cl (stereo not shown) [Example I-521, {6′-Amino-5′-[1-(2-chloro-3,6-difluoro-phenyl)-ethoxy]-[3,3′]bipyridinyl-6-yl}-(4-methyl-piperazin-1-yl)-methanone] is 3.4-fold higher in IC50: 0.0213 µM for the first, 0.0716 µM for the second. The first is the more potent here.

Compared with CC(Oc1cc(-c2ccnc(C(=O)N3CCN(C)CC3)c2)cnc1N)c1c(Cl)ccc(F)c1Cl (stereo not shown) [Example I-515, {6-Amino-5-[1-(2,6-dichloro-3-fluoro-phenyl)-ethoxy]-[3,4′]bipyridinyl-2′-yl}-(4-methyl-piperazin-1-yl)-methanone], CC(Oc1cc(-c2ccnc(C(=O)N3CCN(C)CC3)c2)cnc1N)c1c(F)ccc(F)c1Cl (stereo not shown) [Example I-522] is 1.6-fold higher in IC50: 0.0387 µM for the first, 0.0626 µM for the second.

Going from CC(Oc1cc(-c2ccccn2)cnc1N)c1c(Cl)ccc(F)c1Cl (stereo not shown) [Example I-523, 5′-[1-(2,6-Dichloro-3-fluoro-phenyl)-ethoxy]-[2,3′]bipyridinyl-6′-ylamine] to CC(Oc1cc(OCc2ccccn2)cnc1N)c1c(F)ccc(F)c1Cl (stereo not shown) [Example I-539, 3-[1-(2-Chloro-3,6-difluoro-phenyl)-ethoxy]-5-(pyridin-2-ylmethoxy)-pyridin-2-ylamine], the IC50 rises from 0.0677 µM to 3.2 µM (47-fold). The first is the more potent here.

Going from CC(Oc1cc(-c2ccc(C(=O)N3CCN(C)CC3)cn2)cnc1N)c1c(Cl)ccc(F)c1Cl (stereo not shown) [Example I-527, {6′-Amino-5′-[1-(2,6-dichloro-3-fluoro-phenyl)-ethoxy]-[2,3′]bipyridinyl-5-yl}(4-methyl-piperazin-1-yl)-methanone] to CC(Oc1cc(-c2ccc(C(=O)N3CCN(C)CC3)cc2)cnc1N)c1c(Cl)ccc(F)c1Cl (stereo not shown) [Example I-541, (4-{6-Amino-5-[1-(2,6-dichloro-3-fluoro-phenyl)-ethoxy]-pyridin-3-yl}-phenyl)-(4-methyl-piperazin-1-yl)-methanone], the IC50 rises from 0.0385 µM to 0.079 µM (2.1-fold). The first is the more potent here.

Going from CC(Oc1cc(-c2ccncc2)cnc1N)c1c(F)ccc(F)c1Cl (stereo not shown) [Example I-528, 5-[1-(2-Chloro-3,6-difluoro-phenyl)-ethoxy]-[3,4′]bipyridinyl-6-ylamine] to CC(Oc1cc(OCc2ccncc2)cnc1N)c1c(F)ccc(F)c1Cl (stereo not shown) [Example I-540, 3-[1-(2-Chloro-3,8-difluoro-phenyl)-ethoxy]-5-(pyridin-4-ylmethoxy)-pyridin-2-ylamine], the IC50 rises from 0.0659 µM to 0.8 µM (12-fold).

CC(Oc1cc(OCc2ccccc2)cnc1N)c1c(F)ccc(F)c1Cl (stereo not shown) [Example I-529, 5-Benzyloxy-3-[1-(2-chloro-3,6-difluoro-phenyl)-ethoxy]-pyridin-2-ylamine] and CC(Oc1cc(OCCc2ccccc2)cnc1N)c1c(F)ccc(F)c1Cl (stereo not shown) [Example I-538, 3-[1-(2-Chloro-3,6-difluoro-phenyl)-ethoxy]-5-phenethyloxy-pyridin-2-ylamine] are within 1.5-fold of each other in IC50: 2.58 µM for the first, 2.8 µM for the second.

Compared with CCC(CC)COc1cnc(N)c(OC(C)c2c(F)ccc(F)c2Cl)c1 (stereo not shown) [Example I-530, 3-[1-(2-Chloro-3,6-difluoro-phenyl)-ethoxy]-5-(2-ethyl-butoxy)-pyridin-2-ylamine], CC(C)COc1cnc(N)c(OC(C)c2c(F)ccc(F)c2Cl)c1 (stereo not shown) [Example I-537, 3-[1-(2-Chloro-3,6-difluoro-phenyl)-ethoxy]-5-isobutoxy-pyridin-2-ylamine] is 3.4-fold lower in IC50: 4.08 µM for the first, 1.2 µM for the second. The second is the more potent here.

First: CC(C)CCOc1cnc(N)c(OC(C)c2c(F)ccc(F)c2Cl)c1 (stereo not shown) [Example I-531, 3-[1-(2-Chloro-3,6-difluoro-phenyl)-ethoxy]-5-(3-methyl-butoxy)-pyridin-2-ylamine]
Second: CCCOc1cnc(N)c(OC(C)c2c(F)ccc(F)c2Cl)c1 (stereo not shown) [Example I-533, 3-[1-(2-Chloro-3,6-difluoro-phenyl)-ethoxy]-5-propoxy-pyridin-2-ylamine]
The IC50 of the first is 3.6-fold higher: 2.4 µM for the first, 0.672 µM for the second.

Compared with CCCCOc1cnc(N)c(OC(C)c2c(F)ccc(F)c2Cl)c1 (stereo not shown) [Example I-532, 3-[1-(2-Chloro-3,6-difluoro-phenyl)-ethoxy]-5-butoxy-pyridin-2-ylamine], CC(Oc1cc(O)cnc1N)c1c(F)ccc(F)c1Cl (stereo not shown) [Example I-535, 6-Amino-5-[1-(2-chloro-3,6-difluoro-phenyl)-ethoxy]-pyridin-3-ol] is 3.6-fold lower in IC50: 1.94 µM for the first, 0.54 µM for the second.

CC(Oc1cc(OCC2CCCCC2)cnc1N)c1c(F)ccc(F)c1Cl (stereo not shown) [Example I-534, 3-[1-(2-Chloro-3,6-difluoro-phenyl)-ethoxy]-5-cyclohexylmethoxy-pyridin-2-ylamine] and CC(Oc1cc(OCCC2CCCCC2)cnc1N)c1c(F)ccc(F)c1Cl (stereo not shown) [Example I-536, 3-[1-(2-Chloro-3,6-diftuoro-phenyl)-ethoxy]-5-(2-cyclohexyl-ethoxy)-pyridin-2-ylamine] are within 1.5-fold of each other in IC50: 5.97 µM for the first, 7.5 µM for the second.

same assay, conditions: read-out: Met IC50

First: Nc1ncc(Br)cc1OCc1c(Cl)cccc1Cl [I(a), 5-Bromo-3-(2,6-dichloro-benzyloxy)-pyridin-2-ylamine]
Second: Nc1ncc(Br)cc1OCc1ccccc1 [I(b), 3-Benzyloxy-5-bromo-pyridin-2-ylamine]
The IC50 of the first is lower: 5.3 µM for the first, over 20 µM for the second. The first is the more potent here.
